From patent US9493461B2, “Tetracyclic heterocycle compounds and methods of use thereof for the treatment of hepatitis C” (priority 2013, dated 2016)
Like-named read-outs stand apart in the source and are kept apart here.

What was measured:
HCV replicon genotype 1b = assay: HCV replicon assay, genotype 1b (cell ELISA for replicon-encoded NS3/4A); type: cell-based, hepatitis C virus (HCV)
Protocol: The HCV NS5B inhibitory activity of the present compounds may be tested using assays known in the art. The HCV NS5B polymerase inhibitors described herein have activities in a genotype 1b replicon assay as described in the Examples. The assay is performed by incubating a replicon harboring cell-line in the presence of inhibitor for a set period of time and measuring the effect of the inhibitor on HCV replicon replication either directly by quantifying replicon RNA level, or indirectly by measuring enzymatic activity of a co-encoded reporter enzyme such as luciferase or β-lactamase. By performing a series of such measurements at different inhibitor concentrations, the effective inhibitory concentration of the inhibitor (EC50 or EC90) is determined See Jan M. Vrolijk et al., A replicons-based bioassay for the measurement of interferons in patients with chronic hepatitis C, 110 J. VIROLOGICAL METHODS 201 (2003). Such assays may also be run in an automated format for high through-put screening. See Paul Zuck et al., A cell-based β-lactamase reporter gene assay for the identification of inhibitors of hepatitis C virus replication, 334 ANALYTICAL BIOCHEMISTRY 344 (2004).
(§1) Measurement of inhibition by compounds was performed using the HCV replicon system. Several different replicons encoding different HCV genotypes or mutations were used. In addition, potency measurements were made using different formats of the replicon assay, including different ways of measurements and different plating formats. See Jan M. Vrolijk et al., A replicons-based bioassay for the measurement of interferons in patients with chronic hepatitis C, 110 J. VIROLOGICAL METHODS 201 (2003); Steven S. Carroll et al., Inhibition of Hepatitis C Virus RNA Replication by 2′-Modified Nucleoside Analogs, 278(14) J. BIOLOGICAL CHEMISTRY 11979 (2003). However, the underlying principles are common to all of these determinations, and are outlined below.
(§2) Stable neomycin phosphotransferase encoding replicons-harboring cell lines were used, so all cell lines were maintained under G418 selection prior to the assay. Potency was determined using a cell ELISA assay with an antibody to the replicons encoded NS3/4a protease. See Caterina Trozzi et al., In Vitro Selection and Characterization of Hepatitis C Virus Serine Protease Variants Resistant to an Active-Site Peptide Inhibitor, 77(6) J. Virol. 3669 (2003). To initiate an assay, replicon cells were plated in the presence of a dilution series of test compound in the absence of G418. Typically, the assays were performed in a 96-well plate formate for manual operation, or a 384-well plate format for automated assay. Replicon cells and compound were incubated for 96 hours. At the end of the assay, cells were washed free of media and compound, and the cells were then lysed. RNA was quantified indirectly through detection of replicon-encoded NS3/4A protein levels, through an ELISA-based assay with an antibody specific for NS3/4A. IC50 determinations were calculated as a percentage of a DMSO control by fitting the data to a four-parameter fit function and the data obtained is provided in the table below.
(§3) Data for selected compounds of the present invention was obtained for genotypes 1a and 1b using this method and is provided in the table below: […]

HCV replicon genotype 1a = assay: HCV replicon assay, genotype 1a (cell ELISA for replicon-encoded NS3/4A); type: cell-based, hepatitis C virus (HCV)
Protocol: as §1, with “V[…]” for “VIROLOGICAL METHODS”
as §2, §3

[1] = Hepatitis C virus, 96 h, read-out: 1b IC50 (nM), genotype 1b replicon cells, 96 hours incubation, NS3/4A ELISA readout, % of DMSO control
[2] = Hepatitis C virus, 96 h, read-out: 1a IC50 (nM), genotype 1a replicon cells, 96 hours incubation, NS3/4A ELISA readout, % of DMSO control

| SMILES | IC50 (HCV replicon genotype 1b; [1]) [nM] | IC50 (HCV replicon genotype 1a; [2]) [nM] | IC50 (HCV replicon genotype 1b; read-out: 1b IC50, genotype 1b replicon cells, 96 hours incubation, NS3/4A ELISA readout, % of DMSO control) [nM] | IC50 (HCV replicon genotype 1a; read-out: 1a IC50, genotype 1a replicon cells, 96 hours incubation, NS3/4A ELISA readout, % of DMSO control) [nM] |
| --- | --- | --- | --- | --- |
| CNC(=O)c1c(-c2ccc(F)cc2)oc2cc(N(C)S(C)(=O)=O)c(-c3ccc4nc(C(C)N5CC(F)C5)n5c6cccc(F)c6cc5c4n3)cc12 (single isomer, unassigned) [Example 39, (R or S)-5-(11-fluoro-6-(1-(3-fluoroazetidin-1-yl)ethyl)pyrido[3′,2′:4,5]pyrimido[1,6-a]indol-2-yl)-2-(4-fluorophenyl)-N-methyl-6-(N-methylmethylsulfonamido)benzofuran-3-carboxamide] | 6.08 | 6.37 |  |  |
| CNC(=O)c1c(-c2ccc(F)cc2)oc2cc(N(C)S(C)(=O)=O)c(-c3ccc4nc(C(C)N5CC(F)C5)n5c6cccc(F)c6cc5c4n3)cc12 (single isomer, unassigned) [Example 40, (S or R)-5-(11-fluoro-6-(1-(3-fluoroazetidin-1-yl)ethyl)pyrido[3′,2′:4,5]pyrimido[1,6-a]indol-2-yl)-2-(4-fluorophenyl)-N-methyl-6-(N-methylmethylsulfonamido)benzofuran-3-carboxamide] |  |  | 4.42 | 3.91 |
| CNC(=O)c1c(-c2ccc(F)cc2)oc2cc(N(C)S(C)(=O)=O)c(-c3ccc4nc(CCN5CC(F)C5)c5c([nH]c6cccc(F)c65)c4n3)cc12 [54′, 5-(7-fluoro-6-(2-(3-fluoroazetidin-1-yl)ethyl)-11H-indolo[3,2-c][1,5]naphthyridin-2-yl)-2-(4-fluorophenyl)-N-methyl-6-(N-methylmethylsulfonamido)benzofuran-3-carboxamide] | 4.24 | 4.17 |  |  |
| CNC(=O)c1c(-c2ccc(C(F)(F)F)nc2)oc2cc(N(C)S(C)(=O)=O)c(-c3ccc4ncn5c6cccc(F)c6cc5c4n3)cc12 [Example 1, 5-(11-fluoropyrido[3′,2′:4,5]pyrimido[1,6-a]indol-2-yl)-N-methyl-6-(N-methylmethylsulfonamido)-2-(6-(trifluoromethyl)pyridin-3-yl)benzofuran-3-carboxamide] | 4.01 | 6.56 |  |  |
| CNC(=O)c1c(-c2ccc(OC(F)F)nc2)oc2cc(N(C)S(C)(=O)=O)c(-c3ccc4ncn5c6cccc(F)c6cc5c4n3)cc12 [Example 2] | 6.91 | 2.83 |  |  |
| CNC(=O)c1c(-c2ccc(C(F)F)nc2)oc2cc(N(C)S(C)(=O)=O)c(-c3ccc4ncn5c6cccc(F)c6cc5c4n3)cc12 [Example 3] | 4.12 | 3.38 |  |  |
| CNC(=O)c1c(-c2ccc(C)nc2)oc2cc(N(C)S(C)(=O)=O)c(-c3ccc4ncn5c6cccc(F)c6cc5c4n3)cc12 [Example 5] | 7.4 | 3.7 |  |  |
| CNC(=O)c1c(-c2ccc(F)cc2C)oc2cc(N(C)S(C)(=O)=O)c(-c3ccc4ncn5c6cccc(F)c6cc5c4n3)cc12 [Example 6] | 5.08 | 3.2 |  |  |
| CNC(=O)c1c(-c2ccc(F)nc2)oc2cc(N(C)S(C)(=O)=O)c(-c3ccc4ncn5c6cccc(F)c6cc5c4n3)cc12 [Example 7] | 3.6 | 1.49 |  |  |
| CNC(=O)c1c(C2CC2)oc2cc(N(C)S(C)(=O)=O)c(-c3ccc4ncn5c6cccc(F)c6cc5c4n3)cc12 [Example 8] | 5.82 | 5.71 |  |  |
| CNC(=O)c1c(-c2ccc(F)cc2F)oc2cc(N(C)S(C)(=O)=O)c(-c3ccc4ncn5c6cccc(F)c6cc5c4n3)cc12 [Example 9, 2-(2,4-difluorophenyl)-5-(11-fluoropyrido[3′,2′:4,5]pyrimido[1,6-a]indol-2-yl)-N-methyl-6-(N-methylmethylsulfonamido)benzofuran-3-carboxamide] | 1.99 | 1.16 |  |  |
| CNC(=O)c1c(-c2ccc(F)cc2)oc2cc(N(C)S(C)(=O)=O)c(-c3ccc4ncn5c6cccc(F)c6cc5c4n3)cc12 [Example 10, 2-(4-fluorophenyl)-5-(11-fluoropyrido[3′,2′:4,5]pyrimido[1,6-a]indol-2-yl)-N-methyl-6-(N-methylmethylsulfonamido)benzofuran-3-carboxamide] | 3.24 | 2.01 |  |  |
